We go through two compounds from publication PMC11249626, “Fluorophore-Labeled Pyrrolones Targeting the Intracellular Allosteric Binding Site of the Chemokine Receptor CCR1” (ACS Pharmacology & Translational Science, 2024).

This assay concerns the target T1, CCR2 (Homo sapiens, UniProt P41597).
T1 construct: host or cells: HEK293T, transient
T1 sequence (P41597 1-360 isoform P41597-2): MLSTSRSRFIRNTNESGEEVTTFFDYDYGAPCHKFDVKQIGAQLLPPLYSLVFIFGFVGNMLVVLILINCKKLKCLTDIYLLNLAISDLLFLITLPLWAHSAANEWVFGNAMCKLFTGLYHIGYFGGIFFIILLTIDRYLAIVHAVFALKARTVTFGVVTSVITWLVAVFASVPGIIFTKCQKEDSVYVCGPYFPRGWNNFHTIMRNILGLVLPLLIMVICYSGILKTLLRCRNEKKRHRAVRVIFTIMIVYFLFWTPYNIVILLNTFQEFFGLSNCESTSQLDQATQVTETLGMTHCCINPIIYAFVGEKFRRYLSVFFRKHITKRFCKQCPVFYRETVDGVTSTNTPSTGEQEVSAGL
The assay can be described thus: Membrane-based NanoBRET saturation binding assay, CCR2_GSSG_Nluc membranes. As to the method: Emission spectra of Nluc -labeled CCR1 (CCR1_Nluc) protein: The emission spectra of CCR1_Nluc has already been reported by Toy et al.1 For a confirmation of the reported data with new CCR1_Nluc membrane batches, furimazine (Promega, Mannheim, Germany 1:2000) was added to the membrane preparations (2 µg protein/well). […]
NanoBRET binding assays: Membrane-based NanoBRET saturation assay: For the establishment of our NanoBRET binding assay, we referred to recently published protocols. […]
Then, 20 µL of the membrane preparations diluted in assay buffer (3 µg total protein/well) were added and the plates were incubated for 90 min at 37 °C. Subsequently, 5 µL of a furimazine solution (Promega, Mannheim, Germany, final assay dilution: 1:5,000) were added to each well (final assay volume: 35 µL) before measuring luminescence with a CLARIOstar microplate reader using 620/10 nm and 475/30 nm emission filters after 5 min of incubation in the dark. Bioluminescence resonance energy transfer (BRET) was determined as the ratio of acceptor fluorescence and donor luminescence. […] Specific binding signals were calculated as a difference of total and non-specific binding. If required, netBRET values were calculated as the difference between total BRET values and the values obtained in the absence of a fluorescent ligand. […]

With `CN(C)c1ccc2c(-c3cc(C(=O)NCCOCCOCc4cn(CCCC(=O)C5=C(O)C(=O)N(c6ccc(Cl)cc6F)C5C5CCCCC5)nn4)ccc3C(=O)[O-])c3ccc(=[N+](C)C)cc-3oc2c1` (centres unmarked) [compound 11], the Kd (usually the concentration at which binding is half-saturated) is 1.98 ± 0.27 µM. `CN(C)c1ccc2c(-c3cc(C(=O)NCCOCCOCc4cn(CCCC(=O)C5=C(O)C(=O)N(c6ccc(Br)cc6F)C5C5CCCCC5)nn4)ccc3C(=O)[O-])c3ccc(=[N+](C)C)cc-3oc2c1` (centres unmarked) [compound 12] yielded a Kd of 1.69 ± 0.31 µM.
